Source: US9394562B2, “Soil microorganism, novel oxidoreductase separated from the soil microorganism, gene encoding the oxidoreductase, and method for producing aglycones using the microorganism, the oxidoreductase and the gene” (AMOREPACIFIC CORPORATION, priority 2010, dated 2016)

How the values were obtained:
Assay type in all cases: biochemical
[1] = system: oxidoreductase enzyme derived from Rhizobium sp. GIN611; assay: Deglycosylation activity for flavonoid glycoside substrates by MALDI mass spectrometry; conditions: flavonoid glycoside as substrate
Description: After reacting using ginsenoside Rh2, ginsenoside F2, ginsenoside Rb1, ginsenoside Rb2, ginsenoside Rc, ginsenoside Rb3, ginsenoside F1, ginsenoside Re or the isoflavone daidzin as a substrate, followed by extraction by adding the same volume of ethyl acetate, the ethyl acetate layer was dried and then dissolved again in ethanol, which was subjected to activity measurement by MALDI mass spectrometry.
The oxidoreductase enzyme derived from Rhizobium sp. GIN611, whose expression was induced, was reacted with the flavonoid icariin, camelliaside A or camelliaside B as a substrate in the manner described above and activity was measured by MALDI mass spectrometry. Oxidation of galactose attached to camelliaside A and deglycosylation activity thereof were identified. Also, oxidation of xylose attached to camelliaside B and deglycosylation activity thereof were identified. That is to say, the enzyme was confirmed to show deglycosylation activity for sugars attached to the flavonoid-based aglycones and to capable of degrading not only glucose but also galactose and xylose by oxidizing them (see FIGS. 12 and 13).

[2] = system: deglycosylating enzyme isolated from the selected Rhizobium sp. GIN611; assay: Substrate specificity of deglycosylating enzyme isolated from Rhizobium sp. GIN611; conditions: ginsenoside as substrate
Description: Investigation of the substrate specificity using a deglycosylating enzyme isolated from the selected Rhizobium sp. […] The inventors of the present disclosure have disrupted and centrifuged the microorganism and produced a cell extract comprising the active enzyme from a supernatant.

[3] = system: oxidoreductase enzyme derived from Rhizobium sp. GIN611; assay: Substrate specificity for glycone binding (α-/β-bonding); conditions: nitrophenyl glycoside used as substrate of the enzyme
Description: Specificity of the enzyme for α-bonding and β-bonding was investigated using 4-nitrophenyl α-D-glucopyranoside, 4-nitrophenyl β-D-glucopyranoside, 4-nitrophenyl α-D-galactopyranoside and p-nitrophenyl β-D-galactopyranoside.

C[C@@H]1O[C@@H](OC[C@H]2O[C@@H](Oc3c(-c4ccc(O)cc4)oc4cc(O)cc(O)c4c3=O)[C@H](O[C@@H]3O[C@H](CO)[C@H](O)[C@H](O)[C@H]3O)[C@@H](O)[C@@H]2O)[C@H](O)[C@H](O)[C@H]1O [camelliaside A, kaempferol 3-O-(2-O-galactopyranosyl-6-O-rhamnopyranosyl)glucopyranoside]
oxidation of attached sugar and deglycosylation activity [1]: identified

C[C@@H]1O[C@@H](OC[C@H]2O[C@@H](Oc3c(-c4ccc(O)cc4)oc4cc(O)cc(O)c4c3=O)[C@H](O[C@@H]3OC[C@@H](O)[C@H](O)[C@H]3O)[C@@H](O)[C@@H]2O)[C@H](O)[C@H](O)[C@H]1O [camelliaside B, kaempferol 3-O-(2-O-xylopyranosyl-6-O-rhamnopyranosyl)glucopyranoside]
oxidation of attached sugar and deglycosylation activity [1]: identified

CC(C)=CCC[C@](C)(O[C@@H]1O[C@H](CO)[C@@H](O)[C@H](O)[C@H]1O)[C@H]1CC[C@]2(C)[C@@H]1[C@H](O)C[C@@H]1[C@@]3(C)CC[C@H](O)C(C)(C)[C@@H]3CC[C@]12C [ginsenoside CK, 20-O-β-D-glucopyranosyl-20(S)-protopanaxadiol]
activity for substrate [2]: high activity

O=[N+]([O-])c1ccc(O[C@H]2O[C@H](CO)[C@H](O)[C@H](O)[C@H]2O)cc1 [p-Nitrophenyl α-D-galactopyranoside]
Relative activity (%) [3]: 201%

O=[N+]([O-])c1ccc(O[C@H]2O[C@H](CO)[C@@H](O)[C@H](O)[C@H]2O)cc1 [p-Nitrophenyl α-D-glucopyranoside]
Relative activity (%) [3]: 103%

O=[N+]([O-])c1ccc(O[C@@H]2O[C@H](CO)[C@H](O)[C@H](O)[C@H]2O)cc1 [p-Nitrophenyl β-D-galactopyranoside]
Relative activity (%) [3]: 400%

O=[N+]([O-])c1ccc(O[C@@H]2O[C@H](CO)[C@@H](O)[C@H](O)[C@H]2O)cc1 [p-Nitrophenyl β-D-glucopyranoside]
Relative activity (%) [3]: 100%
